Measurements reported in patent publication US20220048945A1, “PEPTIDE INHIBITING ACTIVITY OF ARYL HYDROCARBON RECEPTOR AND COSMETIC COMPOSITION USING SAME” (SUPADELIXIR INC., priority 2019, published 2022).

Legend:
IL-6 = experiment: ELISA, IL-6 production caused by fine dust; format: cell-based, human; conditions: HaCaT cells, fine dust 10 ug/ml plus peptide 20 uM, 24 hours; fine dust only = 100, no treatment = 0
Procedure: (§1) 2. Specifically, the cultured HaCaT cells were treated with 10 ug/ml of fine dust and 20 uM of the peptide produced in Example 1 (AhR Pep1 to AhR Pep4) respectively, and incubated for 24 hours. Then, IL-6 and TNF-α contents were measured using a […] enzyme-linked immunosorbent assay (ELISA) kit (R&D Systems Inc, Minneapolis, Minn., USA).

TNF-α = experiment: ELISA, TNF-α production caused by fine dust; format: cell-based, human; conditions: HaCaT cells, fine dust 10 ug/ml plus peptide 20 uM, 24 hours; fine dust only = 100, no treatment = 0
Procedure: as §1

Asn-Thr-Glu (NTE; Peptide 4) [AhR Pep 4]
IL-6 production (%) (IL-6): 74% | TNF-α production (%) (TNF-α): 82%

Asn-Thr-Glu-Leu (NTEL; Peptide 3) [AhR Pep 3]
IL-6 production (%) (IL-6): 83% | TNF-α production (%) (TNF-α): 89%

Asp-Arg-Leu (DRL; Peptide 2) [AhR Pep 2]
IL-6 production (%) (IL-6): 87% | TNF-α production (%) (TNF-α): 93%

Asp-Arg-Leu-Asn (DRLN; Peptide 1) [AhR Pep 1]
IL-6 production (%) (IL-6): 76% | TNF-α production (%) (TNF-α): 79%
